Source: BindingDB's records for doi:10.7270/Q2S180TW (Burnham Center For Chemical Genomics, 2008)

Molecular target: Heat shock 70 kDa protein 1A (Homo sapiens, UniProt V9GZ37)
Experiment: Hsp70 inhibitors, probe displacement, primary screen, biochemical, fluorescence polarization (AID 583)
Conditions: pH 7; 23 °C

Heat shock 70 kDa protein 1A, sequence (V9GZ37 whole entry): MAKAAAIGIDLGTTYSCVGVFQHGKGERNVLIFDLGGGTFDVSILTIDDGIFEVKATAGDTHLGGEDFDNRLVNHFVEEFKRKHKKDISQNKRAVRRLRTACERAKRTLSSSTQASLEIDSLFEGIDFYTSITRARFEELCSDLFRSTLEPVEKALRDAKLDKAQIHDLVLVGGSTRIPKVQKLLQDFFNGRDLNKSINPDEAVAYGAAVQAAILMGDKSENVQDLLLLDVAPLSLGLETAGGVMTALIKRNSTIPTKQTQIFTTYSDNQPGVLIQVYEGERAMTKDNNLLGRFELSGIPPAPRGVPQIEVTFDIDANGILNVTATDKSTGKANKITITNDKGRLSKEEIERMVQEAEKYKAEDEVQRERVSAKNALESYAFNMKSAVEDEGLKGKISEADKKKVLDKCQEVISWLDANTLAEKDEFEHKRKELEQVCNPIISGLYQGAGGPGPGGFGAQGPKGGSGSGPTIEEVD

Row | IC50 [µM] | SMILES
1 | 100 | CC(=O)N1CCC2(CC1)c1c(n[nH]c1C)OC(=N)C2C#N (configuration not stated) [6-azanyl-1'-ethanoyl-3-methyl-spiro[2H-pyrano[2,3-c]pyrazole-4,4'-piperidine]-5-carbonitrile]
2 | 21.7 | C=c1[nH]n(-c2cccc(C(=O)O)c2)c(=O)c1=CC=Cc1ccco1 [SMR000113614]
